Laboratory results as given in US20010018090A1, “Calorie reducing agent” (priority 1999, published 2001).
Converted amounts (≈) assume the structure as drawn.

Target: T1, α-glucosidase (sucrase) existing in small intestine of rat (Rattus norvegicus, UniProt P23739)
T1 construct: the supernatant liquid thereof was used as an enzyme solution (sucrase); from tissue; host or cells: rat small intestinal mucous membrane (brush border membrane)
Test: Inhibition of rat small intestinal α-glucosidase (sucrase), IC50
Format: biochemical
Conditions: partially purified rat small intestinal sucrase, 5 mM sucrose, 37° C. for 60 minutes
Procedure: As to the α-glucosidase, a sucrase solution which was partially purified from small intestinal mucous membrane (brush edge membrane) of rat was used. Namely, the mucous membrane of small intestine was exfoliated using a slide glass, homogenized at 4° C. for 5 minutes with a phosphate buffer and subjected to an ultrasonic treatment for 5 minutes. The resulting solution of smashed mucous membrane was centrifuged and the supernatant liquid thereof was used as an enzyme solution (sucrase). A 5 mM sucrose solution was used as a substrate, an enzyme solution and a predetermined amount of a 1-deoxynojirimycin solution or a mulberry extract were added and the reaction was carried out at 37° C. for 60 minutes and then stopped by a treatment at 100° C. for 5 minutes. Amount of glucose in the reaction solution was measured by a biochemical automatic analyzer.

T1 sequence (P23739 whole entry): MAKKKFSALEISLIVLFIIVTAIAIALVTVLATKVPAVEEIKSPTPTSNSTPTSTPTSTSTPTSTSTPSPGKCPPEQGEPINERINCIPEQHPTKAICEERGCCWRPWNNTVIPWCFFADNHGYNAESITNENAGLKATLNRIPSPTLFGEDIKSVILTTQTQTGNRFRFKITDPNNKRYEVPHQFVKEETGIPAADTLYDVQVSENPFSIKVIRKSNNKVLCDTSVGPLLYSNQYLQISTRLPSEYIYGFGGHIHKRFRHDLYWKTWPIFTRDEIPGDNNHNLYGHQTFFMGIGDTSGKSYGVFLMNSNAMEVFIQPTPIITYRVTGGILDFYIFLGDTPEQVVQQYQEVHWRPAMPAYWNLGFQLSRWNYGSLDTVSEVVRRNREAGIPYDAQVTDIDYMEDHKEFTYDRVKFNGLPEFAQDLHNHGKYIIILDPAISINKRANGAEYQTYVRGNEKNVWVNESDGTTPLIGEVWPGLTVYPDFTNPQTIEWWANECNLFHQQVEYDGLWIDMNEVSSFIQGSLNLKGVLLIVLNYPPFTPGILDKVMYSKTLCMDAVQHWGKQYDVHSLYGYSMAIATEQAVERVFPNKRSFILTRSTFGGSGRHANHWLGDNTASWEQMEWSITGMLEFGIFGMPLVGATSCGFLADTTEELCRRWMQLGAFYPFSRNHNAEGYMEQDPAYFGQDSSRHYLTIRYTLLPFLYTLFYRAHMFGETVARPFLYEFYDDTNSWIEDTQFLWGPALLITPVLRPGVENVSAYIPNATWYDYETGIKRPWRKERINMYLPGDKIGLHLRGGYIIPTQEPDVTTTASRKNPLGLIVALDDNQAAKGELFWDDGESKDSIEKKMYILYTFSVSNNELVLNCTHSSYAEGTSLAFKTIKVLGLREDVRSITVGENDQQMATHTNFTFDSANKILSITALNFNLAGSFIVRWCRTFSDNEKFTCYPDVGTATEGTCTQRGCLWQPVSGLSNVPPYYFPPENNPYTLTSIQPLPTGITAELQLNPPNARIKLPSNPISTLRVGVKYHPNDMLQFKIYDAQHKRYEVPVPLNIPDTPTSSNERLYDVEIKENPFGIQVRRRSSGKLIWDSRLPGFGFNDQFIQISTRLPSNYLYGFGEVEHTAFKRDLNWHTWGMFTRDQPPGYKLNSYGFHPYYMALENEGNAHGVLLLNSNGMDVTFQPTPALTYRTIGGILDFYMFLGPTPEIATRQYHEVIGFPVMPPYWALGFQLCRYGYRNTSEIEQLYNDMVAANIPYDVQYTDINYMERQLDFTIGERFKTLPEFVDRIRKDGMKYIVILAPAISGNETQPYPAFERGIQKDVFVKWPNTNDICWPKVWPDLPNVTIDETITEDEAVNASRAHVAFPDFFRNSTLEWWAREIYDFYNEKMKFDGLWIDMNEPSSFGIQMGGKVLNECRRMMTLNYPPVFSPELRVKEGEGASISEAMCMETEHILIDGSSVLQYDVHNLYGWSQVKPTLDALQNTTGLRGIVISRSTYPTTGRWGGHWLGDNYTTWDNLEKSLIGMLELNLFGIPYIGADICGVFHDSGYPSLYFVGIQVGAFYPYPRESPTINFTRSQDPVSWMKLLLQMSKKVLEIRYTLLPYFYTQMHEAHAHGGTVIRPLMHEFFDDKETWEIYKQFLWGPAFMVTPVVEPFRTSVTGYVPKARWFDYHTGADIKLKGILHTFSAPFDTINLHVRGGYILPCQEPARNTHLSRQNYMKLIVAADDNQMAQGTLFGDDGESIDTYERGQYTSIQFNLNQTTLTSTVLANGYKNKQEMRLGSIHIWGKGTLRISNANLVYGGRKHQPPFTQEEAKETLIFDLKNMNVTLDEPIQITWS

OC[C@H]1NC[C@H](O)[C@@H](O)[C@@H]1O [1-Deoxynojirimycin, 1-deoxynojirimycin]
IC50 to Sucrase: 0.05 µg/mL (≈ 0.306 µM)
